According to ChEMBL document CHEMBL1141855, “Trypargine alkaloids from a previously undescribed Eudistoma sp. ascidian” (J Nat Prod, 1999):

Assay: Toxicity in iv dosed mouse
Format: organism-based
Conditions: in vivo

Compound: N=C(N)NCCCC1NCCc2c1[nH]c1ccccc21 (stereo unspecified) [TRYPARGINE]
- LD50: 16.9 mg/kg
